In patent publication US20260076893A1, “SELF-FOAMING CLEANSING COMPOSITION” (Conopco, Inc., d/b/a UNILEVER, priority 2022, published 2026):

How the values were obtained:
[1] = DPPH scavenging method (antioxidation); assay type: biochemical; settings: 0.25%, positive control, dilution not given
From the text: To add antioxidation properties to the self-foaming cleansing composition, tocopherol (Vitamin E) can be added. Antioxidation can be measured using a DPPH scavenging method where DPPH (1,1-Diphenyl-2-picrylhydrazyl) is a stable free radical. On accepting hydrogen from a corresponding donor, its solutions lose a characteristic deep purple color and antiradical activity of tested formulations can be expressed as a percentage decrease of DPPH concentration. […] Accordingly, in a further aspect, the invention relates to the use of tocopherol in a composition according to the invention to provide anti-oxidant activity to the cleansing composition, preferably dose-dependent anti-oxidant activity. The invention relates further to the use of tocopherol to reduce free radicals in a cleansing composition according to the invention, preferably dose-dependent anti-oxidant activity. In a further embodiment, it may be preferred that the cleansing composition of the invention comprises tocopherol and moringa seed oil.
The antioxidant activity of the formulations in Samples 4 and 5 were tested using the DPPH scavenging method (1,1-Diphenyl-2-picrylhydrazyl). DPPH is a stable free radical. […] The antiradical activity of Samples 4 and 5 was expressed as a percentage decrease of DPPH concentration.

IL-1a = experiment: Living skin equivalent assay, IL-1a; assay type: cell-based; settings: living skin equivalent after application of test solution
Procedure: (§1) In the following samples, compositions were made with varying levels of moringa seed oil and tested in a living skin equivalent assay. The base composition was tested with levels of 0.1% by weight, 0.2% by weight, and 0.3% by weight of moringa seed oil, based on the total weight of the self-foaming cleansing composition. The living skin equivalent assay study monitored gene expression of several markers after application of the test solutions to the living skin equivalent assay.
(§2) Comparative Example 1 was a non-treated control meaning no application on the skin model. Comparative Example 2 was another control where phosphate-buffered saline (PBS) was applied topically to the skin model.

CASP14 = experiment: Living skin equivalent assay, CASP14 gene expression; assay type: cell-based
Procedure: as §1, §2

AQP3 = experiment: Living skin equivalent assay, AQP3 gene expression; assay type: cell-based
Procedure: as §1, §2

| Molecule | % Reduction over DPPH reagent control [1] | IL-1a (IL-1a) | CASP14 (Fold change) (CASP14) | AQP3 (Fold change) (AQP3) |
| --- | --- | --- | --- | --- |
| O=C1O[C@H]([C@@H](O)CO)C(O)=C1O [Vitamin C] | 95.04% | – | – | – |
| squalene monoperoxide [SQOOH] | – | 483.84 ± 11.42 pg/mL | 0.54 ± 0.31 Fold change | 0.27 ± 0.04 Fold change |
